Test results taken from PMC5983288, “The Maxi-K (BK) Channel Antagonist Penitrem A as a Novel Breast Cancer-Targeted Therapeutic” (Marine Drugs, 2018).
pIC50: −log10 of the molar value.

Experiments:
BT-474 cells = experiment: cells; format: cell-based, human
Protocol: Penitrems were dissolved in dimethyl sulfoxide (DMSO) to provide a final 25 mM stock solution. Proper media were used to prepare penitrems at their final tested doses for each assay. […] The effects of penitrems 1–3 on the proliferation and growth of multiple BC cell lines were evaluated using MTT assay. […] The next day, cells were washed with PBS, divided into different treatment groups, and then given various concentrations of tested penitrems in 0.5% FBS containing media. Viable cell number was calculated after 48 h using the MTT assay.
(§1) Similarly, the non-tumorigenic mammary epithelial MCF-12A cells were plated in DMEM/F12 supplemented with 5% horse serum, […], 20 ng/mL EGF, 100 U/mL penicillin, 0.1 mg/mL streptomycin, and […]. Next day, cells were divided into different groups and fed serum-free DMEM media supplemented with experimental treatments or vehicle-treated control media. Viable cell number was determined using the MTT colorimetric assay. The absorbance was measured at λ570 nm on a BioTek Synergy2 microplate reader (BioTek, Winooski, VT, USA). The number of cells per well was calculated against a standard curve prepared at the start of the experiment. The IC50 value for each tested sample was calculated by non-linear regression of log concentration versus the % survival, implemented in GraphPad® PRISM version 5.0 (Graph Pad Software, Inc., La Jolla, CA, USA).

[1] = test system: MCF-12A cells (non-tumorigenic human mammary epithelial cells); experiment: MTT cell viability assay, MCF-12A; format: cell-based; details: 48 h
Protocol: (§2) Penitrems were dissolved in dimethyl sulfoxide (DMSO) to provide a final 25 mM stock solution. Proper media were used to prepare penitrems at their final tested doses for each assay. […] The effects of penitrems 1–3 on the proliferation and growth of multiple BC cell lines were evaluated using MTT assay. MDA-MB-231, BT-474, and SK-BR-3 BC cells (ATCC, Manassas, VA, USA) were initially seeded at 1 × 10^4 cells/well (6 replicates/group) in 96-well plates in RPMI-1640 media containing 10% FBS, and allowed to attach overnight. The next day, cells were washed with PBS, divided into different treatment groups, and then given various concentrations of tested penitrems in 0.5% FBS containing media. Viable cell number was calculated after 48 h using the MTT assay.
as §1, with “To evaluate the effect of penitrems on growth of the human neuronal Schwann CRL 2765 (ATCC, Manassas, VA, USA), cells were plated at a density of 1 × 10^4 cell per well (6-wells/group) in 96-well culture plates using the ATCC-recommended media (Dulbecco’s Modified Eagle’s Medium, DMEM) and allowed to adhere overnight for growth studies, after which each treatment was added, and cells were maintained for 48 h. Similarly,” for “Similarly,”

[2] = test system: BK channel subunits α-1 (KCNMA1); experiment: Western blot, BK channel expression in BC cells; format: cell-based, human; details: MDA-MB-231, BT-474, SK-BR-3; 10 µM treatments; vs control
Protocol: (§3) MDA-MB-231, BT-474, SK-BR-3, Schwann CRL-2765, and MCF-12A cells, were plated at a density of 1 × 10^6 cells/100 mm culture plates. MDA-MB-231, BT-474, and SK-BR-3 were plated in RPMI-1640 media supplemented with 10% FBS, Schwann cells CRL-2765 were plated in DMEM media supplemented with 10% FBS [11], and MCF-12A cells were plated in DMEM/F12 supplemented with ingredients described earlier. Cells were allowed to adhere overnight, then washed twice with PBS, and starved in control or treatment in serum-free medium containing 0.5% FBS for 48 h to synchronize the cells in G1 phase. Afterwards, cells were treated with tested penitrems in serum-free defined media for 24 h. At the end of treatment periods, cells were lysed in RIPA buffer (Qiagen Sciences Inc., Valencia, CA, USA). Protein concentration was determined by the BCA assay (Bio-Rad, Hercules, CA, USA). Equivalent amounts of protein (50 µg) were electrophoresed on SDS-polyacrylamide gels. The gels were then electroblotted onto PVDF membranes. These PVDF membranes were then blocked with 2% BSA in 10 mM Tris-HCl containing 50 mM NaCl and 0.1% Tween 20, pH 7.4 (TBST), and then incubated with specific primary antibodies overnight at 4 °C. […] Western blot quantification analysis was done using Image Lab ^TM Software (Bio-Rad, Hercules, CA, USA) for total protein normalization.

[3] = test system: human neuronal Schwann cells CRL-2765; experiment: MTT cell viability assay, Schwann CRL-2765; format: cell-based; details: CRL-2765, MTT, 48 h
Protocol: as §2
as §1, with “To evaluate the effect of penitrems on growth of the human neuronal Schwann CRL 2765 (ATCC, Manassas, VA, USA), cells were plated at a density of 1 × 10^4 cell per well (6-wells/group) in 96-well culture plates using the ATCC-recommended media (Dulbecco’s Modified Eagle’s Medium, DMEM) and allowed to adhere overnight for growth studies, after which each treatment was added, and cells were maintained for 48 h. Similarly,” for “Similarly,”

SK-BR-3 cells = experiment: MTT cell viability assay, SK-BR-3; format: cell-based, human; details: SK-BR-3, MTT, 48 h
Protocol: as §2
as §1, with “To evaluate the effect of penitrems on growth of the human neuronal Schwann CRL 2765 (ATCC, Manassas, VA, USA), cells were plated at a density of 1 × 10^4 cell per well (6-wells/group) in 96-well culture plates using the ATCC-recommended media (Dulbecco’s Modified Eagle’s Medium, DMEM) and allowed to adhere overnight for growth studies, after which each treatment was added, and cells were maintained for 48 h. Similarly,” for “Similarly,”

TNF-α = experiment: Western blot, TNF-α levels in BC cells; format: cell-based, human; details: MDA-MB-231, BT-474, SK-BR-3; 10 µM treatments; vs control
Protocol: as §3

MDA-MB-231 cells = experiment: MTT cell viability assay, MDA-MB-231; format: cell-based, human; details: MDA-MB-231, MTT, 48 h
Protocol: as §2
as §1, with “To evaluate the effect of penitrems on growth of the human neuronal Schwann CRL 2765 (ATCC, Manassas, VA, USA), cells were plated at a density of 1 × 10^4 cell per well (6-wells/group) in 96-well culture plates using the ATCC-recommended media (Dulbecco’s Modified Eagle’s Medium, DMEM) and allowed to adhere overnight for growth studies, after which each treatment was added, and cells were maintained for 48 h. Similarly,” for “Similarly,”

[4] = test system: BK channel subunits α-1 (KCNMA1); experiment: Immunocytochemical fluorescence staining of KCNMA1; format: cell-based, human; details: MDA-MB-231 (9.8 µM) and BT-474 (10.3 µM), 24 h, vs vehicle-treated controls
Protocol: Immunocytochemical fluorescent studies were conducted by growing MDA-MB-231 and BT-474 cells mammary cancer cells on 8-chamber culture slides (Becton Dickinson and Company, Franklin Lakes, NJ, USA) at a density of 2 × 10^4 cells/chamber (2 replicates/group), and allowed to attach overnight in complete serum media supplemented with 10% FBS. […] At the end of experiment, cells were washed with pre-cooled PBS, and fixed with acetone, pre-cooled to −20 °C, for 2 min. Fixed cells were then washed with PBS, and blocked with 2% BSA in 10 mM Tris-HCl containing 50 mM NaCl and 0.1% Tween 20, pH 7.4 (TBST) for 1 h at rt. Cells were then incubated with specific primary antibody for BK channel KCNMA1 (1:300) overnight at 4 °C in 2% BSA-TBST. At the end of incubation time, cells were washed five times with pre-cooled PBS, followed by incubation with Alexa-Fluor 594-conjugated secondary antibody (1:5000) in 2% BSA-TBST for 1 h at rt. After final washing for five times with PBS, cells were embedded in Vectashield Mounting Medium with DAPI (Vector Laboratories Inc., Burlingame, CA, USA). Fluorescent images were obtained by using a confocal laser scanning microscope (Carl Zeiss Microimaging Inc., Thornwood, NY, USA). The red color indicates the positive fluorescence staining for BK channel KCNMA1, and the blue color represents MDA-MB-231 cell nuclei counter-stained with DAPI [30]. […]

BK channels = test system: BK channels; parameters: method as in PMID 27834847, PMID 14593856; details: cited from earlier work
[5] = Homo sapiens, BT-474, MTT, 48 h

| Molecule | pIC50 (BT-474 cells; [5]) | pIC50 ([1]; Homo sapiens) | total levels of BK channel subunits α-1 (KCNMA1) [2] | pIC50 ([3]; Homo sapiens) | pIC50 (SK-BR-3 cells; Homo sapiens) | total levels of TNF-α (TNF-α) | pIC50 (MDA-MB-231 cells; Homo sapiens) | pIC50 (BT-474 cells; Homo sapiens, BT-474, single agent) | total levels of KCNMA1 (immunofluorescence) [4] | pIC50 (BT-474 cells; BT-474, MTT, 48 h) | pIC50 [1] | pIC50 [3] | pIC50 (SK-BR-3 cells) | pIC50 (MDA-MB-231 cells) | BK channels antagonism (BK channels) |
| --- | --- | --- | --- | --- | --- | --- | --- | --- | --- | --- | --- | --- | --- | --- | --- |
| C=C(C)[C@H]1O[C@H]2CC[C@@]3(C)[C@@](O)(CC[C@H]4[C@@H]5OC(C)(C)[C@H]6C[C@@H]7C(=C)Cc8ccc9[nH]c(c5c9c8[C@@]76O)[C@@]43C)[C@]23O[C@@H]3[C@H]1O [Compound 2, Penitrem E] | 4.50 | 4.36 | did not cause changes | 4.17 | 4.44 | increased total levels of TNF-α in both BT-474 and SK-BR-3 cells | 4.69 | – | – | – | – | – | – | – | – |
| C=C(C)C1OC2CCC3(C)C4(C)c5[nH]c6cc(Cl)c7c8c6c5C(OC(C)(C)C5CC(C(=C)C7)C85O)C4CCC3(O)C23OC3C1OC (stereo not shown) [Compound 3, 25-O-methylpenitrem A] | 4.65 | 4.10 | – | 4.32 | 4.57 | – | 4.42 | – | – | – | – | – | – | – | – |
| CS(=O)(=O)CCNCc1ccc(-c2ccc3ncnc(Nc4ccc(OCc5cccc(F)c5)c(Cl)c4)c3c2)o1 [LP, lapatinib, reference compound] | – | – | – | – | – | – | – | 6.91 | – | – | – | – | – | – | – |
| Penitrem A [Compound 1] | – | – | greatest reduction | – | – | increased total levels of TNF-α | – | – | remarkable reduction | 4.99 | 4.47 | 4.65 | 4.82 | 5.01 | potent BK channels antagonist at very low molar concentration |
